{"source": "ChEMBL document CHEMBL1201862", "about": "“PubChem BioAssay data set” (2004)", "target": "Envelope glycoprotein gp160 (Human immunodeficiency virus 1, UniProt Q6QLK5)", "sequence (Q6QLK5 whole entry, the tested form may be a part)": "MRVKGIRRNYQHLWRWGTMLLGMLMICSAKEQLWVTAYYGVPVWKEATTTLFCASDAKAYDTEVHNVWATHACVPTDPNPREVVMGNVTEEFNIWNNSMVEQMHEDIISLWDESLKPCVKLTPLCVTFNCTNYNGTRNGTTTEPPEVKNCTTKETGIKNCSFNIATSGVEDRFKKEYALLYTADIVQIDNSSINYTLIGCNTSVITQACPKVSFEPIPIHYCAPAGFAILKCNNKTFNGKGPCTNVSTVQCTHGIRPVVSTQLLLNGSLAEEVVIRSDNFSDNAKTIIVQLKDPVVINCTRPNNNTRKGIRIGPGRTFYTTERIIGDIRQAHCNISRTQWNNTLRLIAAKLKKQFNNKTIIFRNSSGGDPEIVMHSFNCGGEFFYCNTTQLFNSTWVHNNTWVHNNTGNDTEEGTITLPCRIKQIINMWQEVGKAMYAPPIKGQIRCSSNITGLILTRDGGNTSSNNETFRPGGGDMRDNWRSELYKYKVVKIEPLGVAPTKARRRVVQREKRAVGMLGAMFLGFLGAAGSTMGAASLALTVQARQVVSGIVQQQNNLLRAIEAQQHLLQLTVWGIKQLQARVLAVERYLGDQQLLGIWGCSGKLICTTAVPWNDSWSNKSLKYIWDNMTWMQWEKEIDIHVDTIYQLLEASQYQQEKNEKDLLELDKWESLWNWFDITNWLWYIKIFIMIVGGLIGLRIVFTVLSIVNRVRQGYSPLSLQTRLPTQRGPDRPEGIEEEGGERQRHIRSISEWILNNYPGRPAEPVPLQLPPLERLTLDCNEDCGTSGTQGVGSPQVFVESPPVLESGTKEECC", "assay": "cell-free HIV fusion peptide-binding blockers – biochemical, uHTS, fluorescence dequenching, […] (AID 1986)", "note": "Calls of active or inactive are those of the source. No stated cut-off is given here; in the data, actives have a measured IC50 and inactives only a lower limit."}
{"compound": "COc1ccc(NC(=O)c2cnn3c(O)cc(C4CCN(C(=O)OC(C)(C)C)CC4)nc23)cc1Cl", "values": [{"measurement": "IC50", "result": "16.6 µM (active)"}]}
{"compound": "O=C(O)CSCC(=O)N(Cc1ccccc1)c1nc(-c2ccccc2)c(-c2ccccc2)s1", "values": [{"measurement": "IC50", "result": "13.3 µM (active)"}]}
